For one molecule, Kd results are on record in ChEMBL document CHEMBL1150344, “Interaction of antagonists with calmodulin: insights from molecular dynamics simulations” (J Med Chem, 2008).

This assay has as its target Calmodulin-1 (Homo sapiens, UniProt P0DP23). Nature of the assay: Binding affinity to calmodulin.

As to `CCCCOc1ccc([C@@H](C)NCCCNCCC(c2ccccc2)c2ccccc2)cc1OCCCC`, the Kd (usually the equilibrium constant for the complex coming apart) is 18 nM.
